# Results reported in patent US20260231939A1, “ARTHROPOD CONTROL COMPOSITIONS” (Firmenich SA, priority 2022, published 2026).
# Like-named read-outs stand apart in the source and are kept apart here.
# Legend:
# Aedes aegypti = test: Warm Body assay, mosquito landings on the baited warm body; type: in vivo; conditions: for pest or weed control at 16 µg/mL / pest or weed control at 400 µg/mL / pest or weed control at 10000 µg/mL: Aedes aegypti, read-out: Percentage of repellence of mosquitoes landing on the warm body
# Description: (§1) The controlling effect according to the present invention was assessed using an adapted Warm Body assay as defined in Kröber T, Kessler S, Frei J, Bourquin M, Guerin P M. 2010. J Am Mosq Control Assoc. 26:381-386. In this in-vitro assay the number of mosquito landing on a warm body, simulating an attractive host treated with the tested stimuli, was measured in order to assess the repellence effect.
# The published protocol has been adapted as the switch from Anopheles gambiae to Ae. aegypti led to a decrease of mosquitoes placed in the tested cage due to the size difference (i.e. 30 mosquitoes instead of 50) and to an increase of lighting since Ae. aegypti is a diurnal mosquitoes (i.e. 150 lux instead of 4 lux).
# (§2) On the sandblasted glass Petri dish covering the warm body (28.3 cm^2), 100 μL of the compounds diluted at different concentrations in ethanol was applied. The number of mosquito landing on the warm body was counted for each stimulus. Number of landings on pure ethanol (solvent) control treatment was used to normalize the data and calculate the percentage of repellence.
# Ae. aegypti = test: Arm-in-cage test on human volunteers; type: in vivo, Aedes aegypti; conditions: at 20%
# Description: (§3) The Arm in the box method was adapted from the WHO Guidelines for efficacy testing of mosquito repellents for human skin (WHO/CDS/NTD/WHOPES/2009.4) and/or based on EU biocide testing guidelines (Guidance on the Biocidal Products Regulation. Vol. II Efficacy—Assessment and Evaluation (Parts B+C), v. 4.0. December 2021). The readiness of 200 hungry female mosquitoes Ae. aegypti or 50 An. gambiae to probe is assessed by inserting the untreated arm of human volunteers into the cage (40×40×40 cm) for 30 seconds (negative control) in order to determine probing activity. Then, the product is applied onto the skin of the forearm of the human volunteer (1 mL per 600 cm^2) and after 5 minutes (Ae. aegypti) or 30 minutes (An. gambiae), this arm is inserted into the cage and exposed for 3 minutes. The assay take place in temperature (27±2° C.) and humidity (80±10% RH) regulated room on three different human volunteers.
# An. gambiae = test: Arm-in-cage test on human volunteers; type: in vivo, Anopheles gambiae; conditions: at 20%
# Description: as §3
# Anopheles gambiae = test: Warm Body assay, mosquito landings on the baited warm body; type: in vivo
# Description: Anopheles gambiae is also a model organism as it is anthropophilic and transmits malaria.
# as §1, with “effect. […]” for “effect.”
# as §2
# [1] = more complex lactones (types A, B, C), 0.016 mg/mL
# [2] = more complex lactones (types A, B, C), 0.4 mg/mL
# [3] = more complex lactones (types A, B, C), 10 mg/mL
# [4] = γ-lactones, 0.016 mg/mL in ethanol
# [5] = γ-lactones, 0.4 mg/mL in ethanol
# [6] = γ-lactones, 10 mg/mL in ethanol
smiles,measurement,setting,value
"CC1CCC2C(C1)OC(=O)C2C (stereo not drawn) [3,6-dimethyl-3a,4,5,6,7,7a-hexahydro-3H-1-benzofuran-2-one]",pest or weed control at 16 µg/mL,Aedes aegypti; [1],0%
same,pest or weed control at 400 µg/mL,Aedes aegypti; [2],90%
same,pest or weed control at 10000 µg/mL,Aedes aegypti; [3],98%
same,mosquitoes repelled for at least 1 h,Ae. aegypti,> 95%
same,"Arm-in-cage repellence, mean of three volunteers",Ae. aegypti; 30 min,100% ±
same,"Arm-in-cage repellence, mean of three volunteers",Ae. aegypti; 1 h,99.93% ±
same,"Arm-in-cage repellence, mean of three volunteers",Ae. aegypti; 2 h,92.21% ±
same,"Arm-in-cage repellence, mean of three volunteers",Ae. aegypti; 3 h,86.52% ±
same,"Arm-in-cage repellence, mean of three volunteers",Ae. aegypti; 4 h,66.02% ±
same,mosquitoes repelled for at least 1 h,An. gambiae,> 95%
same,"Arm-in-cage repellence, mean of three volunteers",An. gambiae; 30 min,100% ±
same,"Arm-in-cage repellence, mean of three volunteers",An. gambiae; 1 h,93.7% ±
same,"Arm-in-cage repellence, mean of three volunteers",An. gambiae; 2 h,67.05% ±
C=CCCCCC1CCC(=O)O1 (stereo not drawn) [5-hex-5-enyloxolan-2-one],pest or weed control at 16 µg/mL,Aedes aegypti; [4],14%
same,pest or weed control at 400 µg/mL,Aedes aegypti; [5],89%
same,pest or weed control at 10000 µg/mL,Aedes aegypti; [6],100%
same,Percentage of repellence of mosquitoes landing on the warm body,Anopheles gambiae; 0.08 mg/mL,65%
same,Percentage of repellence of mosquitoes landing on the warm body,Anopheles gambiae; 0.178 mg/mL,72%
same,Percentage of repellence of mosquitoes landing on the warm body,Anopheles gambiae; 0.267 mg/mL,73%
same,Percentage of repellence of mosquitoes landing on the warm body,Anopheles gambiae; 0.598 mg/mL,88%
same,Percentage of repellence of mosquitoes landing on the warm body,Anopheles gambiae; 0.89 mg/mL,98%
same,Percentage of repellence of mosquitoes landing on the warm body,Anopheles gambiae; 2 mg/mL,100%
same,Percentage of repellence of mosquitoes landing on the warm body,Anopheles gambiae; 4.47 mg/mL,100%
same,Percentage of repellence of mosquitoes landing on the warm body,Anopheles gambiae; 10 mg/mL,100%
CCC#CCCC1CCCC(=O)O1 (stereo not drawn) [6-hex-3-ynyloxan-2-one],pest or weed control at 16 µg/mL,"Aedes aegypti; δ-lactones, 0.016 mg/mL",0%
same,pest or weed control at 400 µg/mL,"Aedes aegypti; δ-lactones, 0.4 mg/mL",80%
same,pest or weed control at 10000 µg/mL,"Aedes aegypti; δ-lactones, 10 mg/mL",97%
C=CCCC1CCC(=O)O1 (stereo not drawn) [5-but-3-enyloxolan-2-one],pest or weed control at 16 µg/mL,Aedes aegypti; [4],57%
same,pest or weed control at 400 µg/mL,Aedes aegypti; [5],75%
same,pest or weed control at 10000 µg/mL,Aedes aegypti; [6],100%
"O=C1CCC2CCCCC2O1 (stereo not drawn) [3,4,4a,5,6,7,8,8a-octahydrochromen-2-one]",pest or weed control at 16 µg/mL,Aedes aegypti; [1],35%
same,pest or weed control at 400 µg/mL,Aedes aegypti; [2],90%
same,pest or weed control at 10000 µg/mL,Aedes aegypti; [3],100%
CCC=CCCCCCCC1CCC(=O)O1 (stereo not drawn) [5-dec-7-enyloxolan-2-one],pest or weed control at 16 µg/mL,Aedes aegypti; [4],17%
same,pest or weed control at 400 µg/mL,Aedes aegypti; [5],47%
same,pest or weed control at 10000 µg/mL,Aedes aegypti; [6],85%
CC/C=C\CCCCC1CCC(=O)O1 (stereo not drawn) [5-[(Z)-oct-5-enyl]oxolan-2-one],pest or weed control at 16 µg/mL,Aedes aegypti; [4],0%
same,pest or weed control at 400 µg/mL,Aedes aegypti; [5],75%
same,pest or weed control at 10000 µg/mL,Aedes aegypti; [6],100%
CCCCC=CC1CCC(=O)O1 (stereo not drawn) [5-hex-1-enyloxolan-2-one],pest or weed control at 16 µg/mL,Aedes aegypti; [4],46%
same,pest or weed control at 400 µg/mL,Aedes aegypti; [5],87%
same,pest or weed control at 10000 µg/mL,Aedes aegypti; [6],95%
CCCCC1CCC(=O)O1 (stereo not drawn) [5-butyloxolan-2-one],pest or weed control at 16 µg/mL,Aedes aegypti; [4],41%
same,pest or weed control at 400 µg/mL,Aedes aegypti; [5],44%
same,pest or weed control at 10000 µg/mL,Aedes aegypti; [6],100%
CCCCCC1CCCCC(=O)O1 (stereo not drawn) [7-pentyloxepan-2-one],pest or weed control at 400 µg/mL,"Aedes aegypti; β- and ε-lactones, 0.4 mg/mL",52%
same,pest or weed control at 10000 µg/mL,"Aedes aegypti; β- and ε-lactones, 10 mg/mL",98%
same,Percentage of repellence of mosquitoes landing on the warm body,"Aedes aegypti; β- and ε-lactones, 0.4 mg/mL",52%
"C=C/C=C\C1C(=O)OC1CCCCC (stereo not drawn) [(Z)-3-buta-1,3-dienyl-4-pentyloxetan-2-one]",pest or weed control at 16 µg/mL,"Aedes aegypti; β- and ε-lactones, 0.016 mg/mL",64%
same,pest or weed control at 400 µg/mL,"Aedes aegypti; β- and ε-lactones, 0.4 mg/mL",87%
same,pest or weed control at 10000 µg/mL,"Aedes aegypti; β- and ε-lactones, 10 mg/mL",95%
